This is an account of results in ChEMBL document CHEMBL4359853, “Antiproliferative activity of (R)-4'-methylklavuzon on hepatocellular carcinoma cells and EpCAM+/CD133+ cancer stem cells via SIRT1 and Exportin-1 (CRM1) inhibition” (Eur J Med Chem, 2019).

pIC50: −log10 of the molar value. Active and inactive are the calls of the source. The rule behind the calls is not given here.

Experiment [1] concerns Huh-7. Nature of the experiment: Cell cycle arrest in human HuH7 cells assessed as increase in accumulation at G1 phase at 1 to 1.25 uM measured after 48 hrs by propidium iodide staining based flow cytometry analysis. The class given is functional.
Experiment [2] has as its system Huh-7. Nature of the experiment: Upregulation of SIRT1 in human HuH7 cells assessed as fold change at 5 uM measured after 24 hrs by ELISA relative to control. The class given is functional. (In general: An ELISA detects its analyte on a solid surface through an enzyme-linked reagent.)
The next experiment has as its system HepG2. The experiment in a line: Cytotoxicity against human HepG2 cells assessed as reduction in cell viability measured after 48 hrs by MTT assay. The format is functional, cell-based. The following applies: HepG2, 48 h. In general terms: Tetrazolium dyes change colour on reduction, which living cells bring about.

With `Cc1ccc([C@H]2CC=CC(=O)O2)c2ccccc12`, the result in the experiment on Huh-7 [1] was Active. For the same molecule, in the experiment on Huh-7 [2], the “fold change (FC)” value is recorded as 2. For the same molecule, the pIC50 (usually −log10 of the IC50, conventionally taken in molar units) with HepG2 was 6.60.
